Source: patent publication US20250263370A1 (Tay Therapeutics Limited, priority 2022, published 2025)
Several values for one entry are separate records, joined by “and”; a condition that tells them apart may be missing. Equal entries are not always repeated.

Test system: collagen-induced arthritis
Assay: Collagen-induced arthritis (CIA) model in rats: body weight, paw volume, clinical scores, clinical observations; as to Average detailed clinical score, left hind limb: key of the grades not given here; as to Average detailed clinical score, right hind limb: key of the grades not given here; as to Detailed Clinical Scores, left forelimb: key of the grades not given here; as to Detailed Clinical Scores, left hind limb: key of the grades not given here; as to Detailed Clinical Scores, right forelimb: key of the grades not given here; as to Detailed Clinical Scores, right hind limb: key of the grades not given here; as to Detailed Clinical Scores, score: key of the grades not given here; as to Detailed Clinical Scores: left forelimb: key of the grades not given here; as to Detailed Clinical Scores: left hind limb: key of the grades not given here; as to Detailed Clinical Scores: right forelimb: key of the grades not given here; as to Detailed Clinical Scores: right hind limb: key of the grades not given here; as to Detailed Clinical Scores: score: key of the grades not given here; as to Mean overall clinical score ± SD: key of the grades not given here; as to overall clinical score: key of the grades not given here
Conditions: for Mean animal paw volume ± SD: group mean; for Animal paw volume percent change: individual animals; for Average detailed clinical score, left forelimb / Average detailed clinical score, left hind limb / Average detailed clinical score, right forelimb / Average detailed clinical score, right hind limb / Average detailed clinical score, score / Mean overall clinical score ± SD / Detailed Clinical Scores, left forelimb / Detailed Clinical Scores, left hind limb / Detailed Clinical Scores, right forelimb / Detailed Clinical Scores, right hind limb / Detailed Clinical Scores, score / Overall clinical score / Detailed Clinical Scores: left forelimb / Detailed Clinical Scores: left hind limb / Detailed Clinical Scores: right forelimb / Detailed Clinical Scores: right hind limb / Detailed Clinical Scores: score: CIA rats; for Detailed Clinical Scores, left forelimb / Detailed Clinical Scores, left hind limb / Detailed Clinical Scores, right forelimb / Detailed Clinical Scores, right hind limb / Detailed Clinical Scores, score / Detailed Clinical Scores: left forelimb / Detailed Clinical Scores: left hind limb / Detailed Clinical Scores: right forelimb / Detailed Clinical Scores: right hind limb / Detailed Clinical Scores: score: individual animals ID 1-8; for Overall clinical score: individual animals #1-8
Description: Prior to be randomly placed in treatment groups, animals were weighed, and paw volume was measured. Once randomly assigned to treatment groups, on Day 0, animals in groups 2-9 were immunized by subcutaneous injection at the base of the tail.
The immunization comprised 100 μL of the CFA+Collagen emulsion (prepared according to the method in Experimental Method A). Animals in group one received no immunization. Seven days after the first injection, animals in groups 2-9 received a booster immunization comprising 200 μL of the IFA+Collagen emulsion (prepared according to the method in Experimental Method A).
Starting on Day 0, animals in group 1 and 2 were administered daily doses of the vehicle per os (P.O.) for 21 days. […] The twice daily doses for animals in groups 4-9 were 8 hours apart (e.g., the first dose at 8:00 AM and the second dose at 4:00 PM).
Body weight of all animals was recorded daily for the 21-day period. Blind clinical scores on all four limbs were conducted for all animals in the study. Animals were assessed prior to receiving their first dose of the compound or control, and scores for each limb were combined to a total daily score for each animal. Clinical score assessments were performed on Day 0, 6, 12, 13, 14, 15, 18, 19, and 21 (for a total of 9 daily scores).
Paw volume was recorded for each animal on Day 0, 6, 12, 13, 14, 15, 18, 19, and 21 (for a total of 9 measurements). To measure paw volume, animals were gently held with one hand while the hind paw was placed into a plethysmometer with the other hand. Lipid displacement by the paw was recorded and used to represent paw volume.
All data measured and recorded was analyzed using SPSS 16.0 software. Groups were compared using one-way ANOVA and significance was set at p<0.05.

CNC(=O)c1cc(C(=O)NC2CC2)cn(Cc2ccccc2)c1=O [GSK620]
Mean animal paw volume ± SD (Day 13, L paw): 1.38 mL
Animal paw volume percent change (Day 13, L paw): 5.12% and 1.52% and 12.65% and −0.73% and 4.01% and 2.25% and 4.56% and 3.33%
Mean animal paw volume ± SD (Day 13, R paw): 1.41 mL
Animal paw volume percent change (Day 13, R paw): 9.84% and 3.07% and 10.98% and 14.65% and 3.66% and 3.02% and 6.04% and 3.75%
Average detailed clinical score, left forelimb (Day 13): 0.00
Average detailed clinical score, left hind limb (Day 13): 0.00
Average detailed clinical score, right forelimb (Day 13): 0.00
Average detailed clinical score, right hind limb (Day 13): 0.13
Average detailed clinical score, score (Day 13): 0.13
Mean overall clinical score ± SD (Day 13): 0 ± 0
Detailed Clinical Scores, left forelimb (Day 13): 0
Detailed Clinical Scores, left hind limb (Day 13): 0
Detailed Clinical Scores, right forelimb (Day 13): 0
Detailed Clinical Scores, right hind limb (Day 13): 0 (7×) and 1
Detailed Clinical Scores, score (Day 13): 0 (7×) and 1
Overall clinical score (Day 13): 0 (7×) and 1
Mean animal paw volume ± SD (Day 14, L paw): 1.55 mL
Animal paw volume percent change (Day 14, L paw): 21.65% and 34.98% and 13.44% and −0.37% and 4.01% and 4.87% and 31.18% and 27.78%
Mean animal paw volume ± SD (Day 14, R paw): 1.67 mL
Animal paw volume percent change (Day 14, R paw): 37.01% and 14.18% and 12.55% and 54.58% and 4.40% and 3.77% and 49.81% and 36.70%
Average detailed clinical score, left forelimb (Day 14): 0.00
Average detailed clinical score, left hind limb (Day 14): 0.88
Average detailed clinical score, right forelimb (Day 14): 0.00
Average detailed clinical score, right hind limb (Day 14): 1.13
Average detailed clinical score, score (Day 14): 2.00
Mean overall clinical score ± SD (Day 14): 2 ± 2
Detailed Clinical Scores, left forelimb (Day 14): 0
Detailed Clinical Scores, left hind limb (Day 14): 1 and 2 (3×) and 0 (4×)
Detailed Clinical Scores, right forelimb (Day 14): 0
Detailed Clinical Scores, right hind limb (Day 14): 2 (3×) and 0 (4×) and 3
Detailed Clinical Scores, score (Day 14): 3 (2×) and 2 and 0 (3×) and 4 (2×)
Overall clinical score (Day 14): 3 (2×) and 2 and 0 (3×) and 4 (2×)
Mean animal paw volume ± SD (Day 15, L paw): 1.74 mL
Animal paw volume percent change (Day 15, L paw): 60.24% and 53.99% and 9.49%
Mean animal paw volume ± SD (Day 15, R paw): 1.86 mL
Animal paw volume percent change (Day 15, R paw): 61.02% and 59.00% and 7.84%
Average detailed clinical score, left forelimb (Day 15): 0.00
Average detailed clinical score, left hind limb (Day 15): 1.63
Average detailed clinical score, right forelimb (Day 15): 0.00
Average detailed clinical score, right hind limb (Day 15): 2.00
Average detailed clinical score, score (Day 15): 3.63
Mean overall clinical score ± SD (Day 15): 4 ± 2
Detailed Clinical Scores: left forelimb (Day 15): 0
Detailed Clinical Scores: left hind limb (Day 15): 3 (3×) and 0 (2×) and 1 (2×) and 2
Detailed Clinical Scores: right forelimb (Day 15): 0
Detailed Clinical Scores: right hind limb (Day 15): 3 (3×) and 0 (2×) and 4 and 1 and 2
Detailed Clinical Scores: score (Day 15): 6 (3×) and 0 and 4 (2×) and 1 and 2
Overall clinical score (Day 15): 6 (3×) and 0 and 4 (2×) and 1 and 2
Mean animal paw volume ± SD (Day 18, L paw): 2.48 mL
Animal paw volume percent change (Day 18, L paw): 113.78% and 92.78% and 88.54%
Mean animal paw volume ± SD (Day 18, R paw): 2.35 mL
Animal paw volume percent change (Day 18, R paw): 105.91% and 87.36% and 88.63%
Average detailed clinical score, left forelimb (Day 18): 0.00
Average detailed clinical score, left hind limb (Day 18): 3.88
Average detailed clinical score, right forelimb (Day 18): 0.00
Average detailed clinical score, right hind limb (Day 18): 3.38
Average detailed clinical score, score (Day 18): 7.25
Mean overall clinical score ± SD (Day 18): 7 ± 1
Detailed Clinical Scores: left forelimb (Day 18): 0
Detailed Clinical Scores: left hind limb (Day 18): 4 (7×) and 3
Detailed Clinical Scores: right forelimb (Day 18): 0
Detailed Clinical Scores: right hind limb (Day 18): 4 (6×) and 0 and 3
Detailed Clinical Scores: score (Day 18): 8 (6×) and 4 and 6
Overall clinical score (Day 18): 8 (6×) and 4 and 6
Mean animal paw volume ± SD (Day 19, L paw): 2.54 mL
Animal paw volume percent change (Day 19, L paw): 112.99% and 92.78%
Mean animal paw volume ± SD (Day 19, R paw): 2.36 mL
Animal paw volume percent change (Day 19, R paw): 103.54% and 88.12%
Average detailed clinical score, left forelimb (Day 19): 0.75
Average detailed clinical score, left hind limb (Day 19): 3.63
Average detailed clinical score, right forelimb (Day 19): 0.25
Average detailed clinical score, right hind limb (Day 19): 3.00
Average detailed clinical score, score (Day 19): 7.63
Mean overall clinical score ± SD (Day 19): 8 ± 2
Detailed Clinical Scores: left forelimb (Day 19): 1 (6×) and 0 (2×)
Detailed Clinical Scores: left hind limb (Day 19): 4 (5×) and 3 (3×)
Detailed Clinical Scores: right forelimb (Day 19): 0 (6×) and 1 (2×)
Detailed Clinical Scores: right hind limb (Day 19): 4 (3×) and 3 (4×) and 0
Detailed Clinical Scores: score (Day 19): 9 (2×) and 10 and 6 and 5 and 7 (2×) and 8
Overall clinical score (Day 19): 9 (2×) and 10 and 6 and 5 and 7 (2×) and 8
Mean animal paw volume ± SD (Day 21, L paw): 2.53 mL
Animal paw volume percent change (Day 21, L paw): 112.99% and 90.49%
Mean animal paw volume ± SD (Day 21, R paw): 2.35 mL
Animal paw volume percent change (Day 21, R paw): 106.69% and 86.59%
Average detailed clinical score, left forelimb (Day 21): 0.88
Average detailed clinical score, left hind limb (Day 21): 3.63
Average detailed clinical score, right forelimb (Day 21): 0.25
Average detailed clinical score, right hind limb (Day 21): 3.13
Average detailed clinical score, score (Day 21): 7.88
Mean overall clinical score ± SD (Day 21): 8 ± 2
Detailed Clinical Scores: left forelimb (Day 21): 1 (5×) and 2 and 0 (2×)
Detailed Clinical Scores: left hind limb (Day 21): 4 (5×) and 3 (3×)
Detailed Clinical Scores: right forelimb (Day 21): 0 (6×) and 1 (2×)
Detailed Clinical Scores: right hind limb (Day 21): 4 (3×) and 3 (4×) and 1
Detailed Clinical Scores: score (Day 21): 9 (2×) and 11 and 6 (2×) and 7 (2×) and 8
Overall clinical score (Day 21): 9 (2×) and 11 and 6 (2×) and 7 (2×) and 8
